Measured values as given in publication PMC3030572, “Antamanide, a Derivative of Amanita phalloides, Is a Novel Inhibitor of the Mitochondrial Permeability Transition Pore” (PLoS ONE, 2011).
“Also recorded” adds a separate entry of the source. Where two headings read alike, the source gives them in different places.

Experiments:
HeLa cells [1] = type: cell-based, human; conditions: data not shown
HeLa cells [2] = type: cell-based, human; conditions: TMRM; for induction of mitochondrial depolarization / percentage of cells with depolarized mitochondria: difference from untreated cells: 1 hour; for percentage of cells with depolarized mitochondria: difference from untreated cells: Student's t test, Figure 5B
Experimental: Figure 5 Effect of AA on mitochondrial potential of HeLa cells. A, bar graphs report the ratio between the CRC detected in the presence (CRC) and absence (CRC0) of increasing concentrations of AA in mitochondria from HeLa cells. […] B,C cytofluorimetric analysis of mitochondrial depolarization. HeLa cells were incubated with the TMRM probe and treated for 1 hour with the reported concentrations of either clotrimazole (CTM) or TAT-HK peptide. An unrelated TAT-linked peptide (TAT-Ctr) is used as a negative control. […] Bar graphs in B display the percentage of cells with depolarized mitochondria (mean±SD, n = 4). […] Histograms in C report a representative experiment, where cells with polarized and depolarized mitochondria are indicated in red and grey, respectively.
(§1) Flow cytometry recordings were performed as described, [51], [52]. Briefly, at the end of the incubation, cells were resuspended in 135 mM NaCl, 10 mM HEPES, 5 mM CaCl2 and incubated at 37°C in either TMRM (10 nM) to detect mitochondrial depolarization (reduced TMRM staining), or in FITC-conjugated Annexin-V and propidium iodide (PI, 1 µg/ml), to detect phosphatidylserine exposure on the cell surface (increased FITC-conjugated Annexin-V staining) and loss of plasma membrane integrity (PI permeability and staining). […] Samples were analyzed on a FACSCanto II flow cytometer (Becton Dickinson, San Diego, CA, USA). Data acquisition and analysis were performed using FACSDiva software.

[3] = tested on: organic anion-transporting polypeptide family; conditions: also our unpublished data; ref [8]; cited from earlier work
From the text: (§2) Antamanide (AA) is a monocyclic, homodetic decapeptide isolated from the poisonous mushroom Amanita phalloides. […] Little is known about the biochemical mechanisms underlying these diverse bioactivities. […] The CyP chaperone activity, i.e. the isomerization to the cis form of the peptidyl bonds preceding each proline, is involved in folding and association processes required for proteins to perform thei ...

[4] = tested on: mitochondrial permeability transition pore (PTP); type: biochemical, mouse
Experimental: A, chemical structure of AA. B, D, Ca^2+ retention capacity (CRC) either in phosphate (Pi) buffer (B) or in arsenate (Asi) buffer (D). Calcium Green-5N fluorescence is reported as arbitrary units on the y axis.
Mitochondria were isolated either from livers of C57BL/6 mice through sequential centrifugations, or from cells, as described. To obtain mitochondria, cells were disrupted with a glass-Teflon potter in a buffer composed by 250 mM sucrose, 10 mM Tris-HCl, 0.1 mM EGTA-Tris, pH 7.4. Nuclei and plasma membrane fractions were separated by a first mild centrifugation (700× g, 10 min), and mitochondria were then spinned down at a higher speed (7000× g, 10 min). All procedures were carried out at 0–4°C.
PTP opening was detected as a fluorescence increase.

[5] = tested on: mitochondrial permeability transition pore (PTP); conditions: ref [30]; cited from earlier work
From the text: AA is the cyclodecapeptide c([…] (Figure 1A). To evaluate its effect on the PTP, we performed Ca^2+ retention capacity (CRC) assays on isolated mouse liver mitochondria (MLM).

[6] = tested on: muscle samples derived from patients affected by Ullrich muscular dystrophy; conditions: ref [37]; cited from earlier work
From the text: (§3) CyP-D is a promising pharmacological target.

[7] = tested on: mouse model of the disease; conditions: ref [38]; cited from earlier work
From the text: as §3

HeLa cells [8] = type: cell-based, human
Experimental: A, cytofluorimetric analysis of cell death induction in HeLa cells treated for 1 hour with TAT-HK. […] TAT-Ctr was used as a negative control. Cells were double stained with Annexin V-FITC and propidium iodide (PI), to respectively evaluate apoptosis induction as phosphatidylserine exposure on the cell surface (increased Annexin V-FITC staining) and cell death as plasma membrane permeabilization (increased PI staining). We considered Annexin V^+ as early/intermediate apoptotic cells; PI^+ as necrotic cells; double stained as late apoptotic cells. Bar graphs display the percentage of each cell population (mean±SD, n = 4; double positive cells are added to both bars). […] B, histograms reporting a representative experiment, where viable cells are indicated in red, PI^+- and Annexin V^+-cells are indicated in grey and green, respectively.
as §1

malignancies = conditions: ref [47]; cited from earlier work
HCV/HIV = conditions: ref [35]; cited from earlier work
From the text: (§4) CyP-D is a promising pharmacological target. It is part of the CyP protein family, composed by ubiquitous and extremely conserved proteins located in different subcellular compartments, [35].

lymphocyte activation = conditions: via CyP-A/CsA complex; ref [36]; cited from earlier work
From the text: as §4

[9] = tested on: tumor necrosis; metastasis formation; conditions: ref [45]; cited from earlier work
immunosuppressant = tested on: immunosuppressant; parameters: method as in PMID 1494502, PMID 8441706; conditions: ref [10], [11]; cited from earlier work
From the text: as §2

[10] = tested on: multidrug resistance proteins; conditions: ref [50]; cited from earlier work
[11] = tested on: mitochondrial permeability transition pore (PTP); conditions: ref [37]; cited from earlier work
Experimental: Briefly, at the end of the incubation, cells were resuspended in 135 mM NaCl, 10 mM HEPES, 5 mM CaCl2 and incubated at 37°C in either TMRM (10 nM) to detect mitochondrial depolarization (reduced TMRM staining), or in FITC-conjugated Annexin-V and propidium iodide (PI, 1 µg/ml), to detect phosphatidylserine exposure on the cell surface (increased FITC-conjugated Annexin-V staining) and loss of plasma membrane integrity (PI permeability and staining).

HeLa cells [12] = type: cell-based, human; conditions: phalloidin 50 µg/ml, 1 hour, TMRM, Figure S1B
[13] = 30 min preincubation, then TAT-HK 1 hour

Compound: Clc1ccccc1C(c1ccccc1)(c1ccccc1)n1ccnc1 [CTM, clotrimazole]
- cell death induction by clotrimazole (HeLa cells [1]; compared with TAT-HK): A similar degree of cell death was observed
- induction of mitochondrial depolarization (HeLa cells [2]): marked mitochondrial depolarization
- percentage of cells with depolarized mitochondria: difference from untreated cells (HeLa cells [2]; n = 4): significant difference (Student's t test analysis; #: p<0.01)

Compound: N#CC(C#N)=NNc1ccc(OC(F)(F)F)cc1 [FCCP]
- mitochondrial depolarization (positive control) (HeLa cells [2]; FCCP 4 µM): full mitochondrial depolarization

Compound: C=CC[C@@H]1/C=C(\C)C[C@H](C)C[C@H](OC)[C@H]2O[C@@](O)(C(=O)C(=O)N3CCCC[C@H]3C(=O)O[C@H](/C(C)=C/[C@@H]3CC[C@@H](O)[C@H](OC)C3)[C@H](C)[C@@H](O)CC1=O)[C@H](C)C[C@@H]2OC [FK506]
- inhibition of cell uptake of phalloidin [3]: cell uptake of phalloidin was also inhibited

Compound: COC1=C(OC)C(=O)C(C)=CC1=O [Ub0, Ubiquinone 0, reference compound]
- CRC/CRC0: difference from CRC of untreated mitochondria ([4]; AA at various concentrations, Figure 1C and D, mean±SD of at least 4 experiments, Student's t test): significant difference (Student's t test analysis; *: p<0.01)
- PTP inhibition in arsenate ([4]; arsenate (Asi) buffer, Figure 1B, D): inhibits the pore also in Asi buffer, albeit to a lesser extent
- PTP inhibition when phosphate is substituted with arsenate [5]: the effect of CsA, but not of Ub0, is abolished

Compound: CO[C@H]1C[C@@H]2CC[C@@H](C)[C@@](O)(O2)C(=O)C(=O)N2CCCC[C@H]2C(=O)O[C@H]([C@H](C)C[C@@H]2CC[C@@H](O)[C@H](OC)C2)CC(=O)[C@H](C)/C=C(\C)[C@@H](O)[C@@H](OC)C(=O)[C@H](C)C[C@H](C)/C=C/C=C/C=C/1C [rapamycin]
- inhibition of cell uptake of phalloidin [3]: cell uptake of phalloidin was also inhibited

Compound: Debio-025
- mitochondrial function and apoptotic rate [6]: normalizes mitochondrial function and apoptotic rate
- mitochondrial function and apoptotic rate [7]: normalizes mitochondrial function and apoptotic rate

Compound: MIASHLLAYFFTELNbA-GYGRKKRRQRRRG [TAT-HK, HKII-displacing peptide]
- induction of mitochondrial depolarization (HeLa cells [2]): marked mitochondrial depolarization
- percentage of cells with depolarized mitochondria: difference from untreated cells (HeLa cells [2]; n = 4): significant difference (Student's t test analysis; #: p<0.01)
- cell death induction (HeLa cells [8]; TAT-HK 1 hour, Annexin V / propidium iodide): fast and dramatic cell death, mainly necrosis
- number of PI+ cells: difference from untreated cells (HeLa cells [8]; TAT-HK 1 hour, n = 4, Student's t test #: p<0.01): significantly increased

Compound: cyclosporin A [CsA]
- inhibition of clotrimazole-induced cell death (HeLa cells [1]; clotrimazole): inhibited the process
- effect on progression of malignancies (malignancies): can enhance the progression of certain malignancies
- reversal of CTM-induced mitochondrial depolarization (HeLa cells [2]; 30 min preincubation, then CTM 1 hour, n = 4): significantly decreased the percentage of cells with mitochondria depolarized by CTM (Student's t test analysis; *: p<0.01); also recorded: similarly reverted
- reversal of TAT-HK-induced mitochondrial depolarization (HeLa cells [2]; 30 min preincubation, then TAT-HK 1 hour, n = 4): similarly reverted
- prevention of HCV/HIV replication (HCV/HIV): prevent HCV/HIV replication
- inhibition of lymphocyte activation (lymphocyte activation): inhibits lymphocyte activation
- effect on tumor necrosis and metastasis [9]: induces tumor necrosis and abrogates metastasis formation
- immunosuppressant activity (immunosuppressant): act as immunosuppressants
- inhibition of multidrug resistance proteins [10]: inhibits multidrug resistance proteins
- effect on TAT-HK-induced necrotic response (HeLa cells [8]; [13]): virtually abolished the necrotic response
- residual apoptosis after TAT-HK (HeLa cells [8]; [13]): a small fraction of cells undergoing apoptosis was still detectable
- protection from TAT-HK induced death (HeLa cells [8]; 30 min preincubation, then TAT-HK 1 hour, n = 4, Student's t test *: p<0.01): significantly protected from TAT-HK induced death

Compound: cyclosporin H
- activity on the PTP [11]: inactive on the PTP

Compound: phalloidin [reference compound]
- effect on mitochondrial potential (HeLa cells [12]): could not detect any effect
- activity on the PTP ([4]; phalloidin 50 µg/ml): inactive on the PTP
- effect on mitochondrial Ca2+ retention capacity ([4]; phalloidin 50 µg/ml, MLM, 3 experiments, Figure S1A): could not detect any effect
